Literature values as cited in US9962390B2, “Mosapride sustained-release formulation providing pharmacological and clinical effects with once-daily administration” (Korea United Pharm. Inc., priority 2013, dated 2018).
Counter-ions that a name gives are not always drawn.

Assays:
[1] = not given; remark: listed apart in the source

concentration in eyeballs relative to blood (eyeballs) | concentration relative to that in blood plasma (liver, small intestine, kidney, and adrenal glands) | absorbed in the digestive tract (orally administered) | water solubility compared with Mosapride [1] | SMILES
about half the concentration in blood | at least 10 times | more than 93% | – | CCOc1cc(N)c(Cl)cc1C(=O)NCC1CN(Cc2ccc(F)cc2)CCO1 (stereo not shown) [Mosapride, 4-amino-5-chloro-2-ethoxy-N-{[4-(4-fluorobenzyl)-2-morpholinyl]methyl}benzamide]
– | – | – | higher water solubility | CCOc1cc(N)c(Cl)cc1C(=O)NCC1CN(Cc2ccc(F)cc2)CCO1 (stereo not shown) [Mosapride citrate]
